Reference: ChEMBL document CHEMBL4346757, “Synthesis and biological evaluation of 7-methoxy-1-(3,4,5-trimethoxyphenyl)-4,5-dihydro-2H-benzo[e]indazoles as new colchicine site inhibitors” (Bioorg Med Chem Lett, 2019)

Legend:
Format in all cases: functional
[1] = test system: LOX IMVI; assay: Growth inhibition of human LOXIMVI cells assessed as cell growth at 10 uM after 48 hrs by SRB assay relative to control; details: read-out: Activity
[2] = test system: MDA-MB-231; assay: Cytotoxicity against human MDA-MB-231/ATCC cells assessed as growth inhibition after 48 hrs by SRB assay; details: MDA-MB-231, 48 h
[3] = test system: UACC-62; assay: Growth inhibition of human UACC62 cells assessed as cell growth at 10 uM after 48 hrs by SRB assay relative to control; details: UACC-62, 48 h, read-out: Activity
[4] = test system: SK-MEL-28; assay: Growth inhibition of human SK-MEL-28 cells assessed as cell growth at 0.1 uM after 48 hrs by SRB assay relative to control; details: SK-MEL-28, 48 h, read-out: Activity
[5] = test system: NCI-H23; assay: Growth inhibition of human NCI-H23 cells assessed as cell growth at 0.1 uM after 48 hrs by SRB assay relative to control; details: NCI-H23, 48 h, read-out: Activity
[6] = test system: UO-31; assay: Growth inhibition of human UO31 cells assessed as cell growth at 100 uM after 48 hrs by SRB assay relative to control; details: UO-31, 48 h, read-out: Activity
[7] = test system: ACHN; assay: Growth inhibition of human ACHN cells assessed as cell growth at 100 uM after 48 hrs by SRB assay relative to control; details: read-out: Activity
[8] = test system: MDA-MB-468; assay: Growth inhibition of human MDA-MB-468 cells assessed as cell growth at 100 uM after 48 hrs by SRB assay relative to control; details: MDA-MB-468, 48 h, read-out: Activity
[9] = test system: IGROV-1; assay: Growth inhibition of human IGROV1 cells assessed as cell growth at 0.01 uM after 48 hrs by SRB assay relative to control; details: IGROV-1, 48 h, read-out: Activity
[10] = test system: OVCAR-3; assay: Growth inhibition of human OVCAR3 cells assessed as cell growth at 1 uM after 48 hrs by SRB assay relative to control; details: OVCAR-3, 48 h, read-out: Activity
[11] = test system: SNB-19; assay: Growth inhibition of human SNB19 cells assessed as cell growth at 0.01 uM after 48 hrs by SRB assay relative to control; details: SNB-19, 48 h, read-out: Activity
[12] = test system: SR; assay: Growth inhibition of human SR cells assessed as cell growth at 0.01 uM after 48 hrs by SRB assay relative to control; details: read-out: Activity
[13] = test system: MDA-MB-231; assay: Growth inhibition of human MDA-MB-231/ATCC cells assessed as cell growth at 0.1 uM after 48 hrs by SRB assay relative to control; details: MDA-MB-231, 48 h, read-out: Activity
[14] = test system: HCT-116; assay: Growth inhibition of human HCT116 cells assessed as cell growth at 1 uM after 48 hrs by SRB assay relative to control; details: HCT-116, 48 h, read-out: Activity
[15] = test system: MDA-MB-468; assay: Growth inhibition of human MDA-MB-468 cells assessed as cell growth at 10 uM after 48 hrs by SRB assay relative to control; details: MDA-MB-468, 48 h, read-out: Activity
[16] = test system: Malme-3M; assay: Growth inhibition of human MALME-3M cells assessed as cell growth at 1 uM after 48 hrs by SRB assay relative to control; details: read-out: Activity
[17] = test system: BT-549; assay: Cytotoxicity against human BT549 cells assessed as growth inhibition after 48 hrs by SRB assay; details: BT-549, 48 h
[18] = test system: OVCAR-3; assay: Growth inhibition of human OVCAR3 cells assessed as cell growth at 100 uM after 48 hrs by SRB assay relative to control; details: OVCAR-3, 48 h, read-out: Activity
[19] = test system: OVCAR-3; assay: Growth inhibition of human OVCAR3 cells assessed as cell growth at 0.1 uM after 48 hrs by SRB assay relative to control; details: OVCAR-3, 48 h, read-out: Activity
[20] = test system: 786-0; assay: Growth inhibition of human 786-0 cells assessed as cell growth at 0.01 uM after 48 hrs by SRB assay relative to control; details: 786-0, 48 h, read-out: Activity
[21] = test system: SF-539; assay: Growth inhibition of human SF539 cells assessed as cell growth at 1 uM after 48 hrs by SRB assay relative to control; details: SF-539, 48 h, read-out: Activity
[22] = test system: SK-MEL-5; assay: Growth inhibition of human SK-MEL-5 cells assessed as cell growth at 1 uM after 48 hrs by SRB assay relative to control; details: SK-MEL-5, 48 h, read-out: Activity
[23] = test system: SK-OV-3; assay: Growth inhibition of human SKOV3 cells assessed as cell growth at 0.1 uM after 48 hrs by SRB assay relative to control; details: SK-OV-3, 48 h, read-out: Activity
[24] = test system: COLO 205; assay: Growth inhibition of human COLO205 cells assessed as cell growth at 100 uM after 48 hrs by SRB assay relative to control; details: COLO 205, 48 h, read-out: Activity
[25] = test system: T47D; assay: Growth inhibition of human T47D cells assessed as cell growth at 100 uM after 48 hrs by SRB assay relative to control; details: read-out: Activity
[26] = test system: NCI-H522; assay: Growth inhibition of human NCI-H522 cells assessed as cell growth at 100 uM after 48 hrs by SRB assay relative to control; details: NCI-H522, 48 h, read-out: Activity
[27] = test system: NCI-H522; assay: Growth inhibition of human NCI-H522 cells assessed as cell growth at 0.1 uM after 48 hrs by SRB assay relative to control; details: NCI-H522, 48 h, read-out: Activity
[28] = test system: SR; assay: Growth inhibition of human SR cells assessed as cell growth at 1 uM after 48 hrs by SRB assay relative to control; details: read-out: Activity
[29] = test system: SNB-75; assay: Growth inhibition of human SNB75 cells assessed as cell growth at 0.1 uM after 48 hrs by SRB assay relative to control; details: SNB-75, 48 h, read-out: Activity
[30] = test system: SW-620; assay: Growth inhibition of human SW620 cells assessed as cell growth at 0.01 uM after 48 hrs by SRB assay relative to control; details: SW-620, 48 h, read-out: Activity
[31] = test system: CAKI-1; assay: Growth inhibition of human Caki1 cells assessed as cell growth at 10 uM after 48 hrs by SRB assay relative to control; details: CAKI-1, 48 h, read-out: Activity
[32] = test system: COLO 205; assay: Cytotoxicity against human COLO205 cells assessed as growth inhibition after 48 hrs by SRB assay; details: COLO 205, 48 h
[33] = test system: MCF7; assay: Growth inhibition of human MCF7 cells assessed as cell growth at 0.01 uM after 48 hrs by SRB assay relative to control; details: MCF7, 48 h, read-out: Activity

Structure (SMILES): COc1ccc2c(c1)CCc1n[nH]c(-c3cc(OC)c(OC)c(OC)c3)c1-2
- growth at 10 µM [1]: 7%
- GI50 ([2]; read-out: GI50): < 0.01 µM
- LC50 (concentration killing 50% of cells) ([2]; read-out: LC50): > 100 µM
- TGI ([2]; read-out: TGI): 44.8 µM
- GI50 ([2]; read-out: pGI50 (converted)): < 0.01 µM
- LC50 (concentration killing 50% of cells) ([2]; read-out: pLC50 (converted)): > 100 µM
- TGI ([2]; read-out: pTGI (converted)): 44.7 µM
- growth at 10 µM [3]: 10%
- growth at 0.1 µM [4]: 60%
- growth at 0.1 µM [5]: 5%
- growth at 100 µM [6]: -43%
- growth at 100 µM [7]: -29%
- growth at 100 µM [8]: -39%
- growth at 0.01 µM [9]: 39%
- growth at 1 µM [10]: 17%
- growth at 0.01 µM [11]: 33%
- growth at 0.01 µM [12]: 23%
- growth at 0.1 µM [13]: 29%
- growth at 1 µM [14]: 1%
- growth at 10 µM [15]: -5%
- growth at 1 µM [16]: 44%
- GI50 ([17]; read-out: GI50): < 0.01 µM
- LC50 (50% lethal concentration) ([17]; read-out: LC50): > 100 µM
- TGI ([17]; read-out: TGI): 10.6 µM
- GI50 ([17]; read-out: pGI50 (converted)): < 0.01 µM
- LC50 (50% lethal concentration) ([17]; read-out: pLC50 (converted)): > 100 µM
- TGI ([17]; read-out: pTGI (converted)): 10.7 µM
- growth at 100 µM [18]: -59%
- growth at 0.1 µM [19]: 12%
- growth at 0.01 µM [20]: 24%
- growth at 1 µM [21]: -12%
- growth at 1 µM [22]: -24%
- growth at 0.1 µM [23]: -2%
- growth at 100 µM [24]: -71%
- growth at 100 µM [25]: -72%
- growth at 100 µM [26]: -66%
- growth at 0.1 µM [27]: -18%
- growth at 1 µM [28]: 16%
- growth at 0.1 µM [29]: 31%
- growth at 0.01 µM [30]: 16%
- growth at 10 µM [31]: 13%
- GI50 ([32]; read-out: GI50): < 0.01 µM
- CC50 ([32]; read-out: LC50 (the source's name)): 0.249 µM
- TGI ([32]; read-out: TGI): < 0.01 µM
- GI50 ([32]; read-out: pGI50 (converted)): < 0.01 µM
- CC50 ([32]; read-out: pLC50 (the source's name) (converted)): 0.251 µM
- TGI ([32]; read-out: pTGI): < 0.01 µM
- growth at 0.01 µM [33]: 17%
